In patent EP0733364A1, “MEDICINAL COMPOSITION FOR CIRCULATORY ORGAN” (NIPPON SHINYAKU COMPANY, LIMITED, priority 1993, dated 1995):
Where “and” joins values, the source holds several entries; their conditions need not be identical. Equal values may be shown once.

Experiments:
Assay type in all cases: in vivo, beagle dogs
fibrin clot = experiment: Fibrinolytic action: lysis of 125I-fibrin clot made from plasma obtained 48 hr after drug administration; details: for Fibrinolysis (%) : (24 hr after addition of Urokinase): N 4, mean S.E.
Description: The plasma obtained 48 hr after drug administration in Test Example 1 was used in this test.
To 0.35 ml of plasma was added 40 µl ^125I-fibrinogen (185 kBq/ml) and the mixture was dispensed to 3 test tubes, 0.1 ml per tube. To each of the test tubes was added 10 µl each of 100 µU/ml thrombin solution and 0.5 M calcium chloride solution and, after stirring, each tube was incubated at 37°C for 30 min to prepare a fibrin clot. Then, 2% albumin-saline containing 0, 50 or 100 U of urokinase was added to the tubes, 1 ml per tube. The tubes were incubated at 37°C and at 0, 3, 6, 9, 21 and 24 hr of incubation, 50µl of the supernatant was taken in a RIA tube and using a γ-counter (Packard Japan, A5424), the amount of the ^125I-fibrin degradated product was determined.

[1] = Observation for evaluation of diarrhea (stool property); design: key to stool property: -: normal stool; ±: slightly soft stool; +: soft stool; ++: mild diarrhea; +++: diarrhea; details: for stool property: one line per animal
Text: In Test Example 1, the stool property was monitored every day and rated on the 5-point scale of -: normal, ±: slightly soft stool, +: soft stool, ++: mild diarrhea, +++: diarrheal.

α2-PI = experiment: Assay of α2-PI activity in plasma after oral administration; details: oral once a day for 3 days (0, 24, 48 hr), 116 mg/kg compound A as printed, Fig. 1
Description: The drugs were administered to groups of 4 beagle dogs (22-23 months old, body weights 9-11 kg) and the blood was serially sampled (-120, 0, 6, 24, 48, 72, 96, and 168 hr) for assay of α2-PI activity. One capsule of either compound A or compound B was administered orally once a day for 3 days (at 0, 24, and 48 hr) [116 mg/kg compound A or 300 mg/kg compound B (equimolar to compound A)]. Blood sampling was carried out by drawing 9 volumes of blood into a vacuum blood sampling tube containing 1 volume of 3.8% sodium citrate and, after gentle mixing, each blood sample was centrifuged (3,000 rpm x 10 min.) to separate the plasma. The plasma α2-PI activity was assayed with Test Team APL 2 Kit using the cleavage of the synthetic chromogenic substrate S-2251 as an indicator by plasmin.

stool property ([1]; Day 1, 116mg/kg oral once a day for 3 days, 116 mg/kg)	stool property ([1]; Day 3, 116mg/kg oral once a day for 3 days, 116 mg/kg)	stool property ([1]; Day 4, 116mg/kg oral once a day for 3 days, 116 mg/kg)	stool property ([1]; Day 7, 116mg/kg oral once a day for 3 days)	stool property ([1]; Day 1, 300mg/kg oral once a day for 3 days, 300 mg/kg)	stool property ([1]; Day 3, 300mg/kg oral once a day for 3 days, 300 mg/kg)	stool property ([1]; Day 4, 300mg/kg oral once a day for 3 days, 300 mg/kg)	stool property ([1]; Day 7, 300mg/kg oral once a day for 3 days, 300 mg/kg)	SMILES	Fibrinolysis (%) : (24 hr after addition of Urokinase) (fibrin clot; Urokinase 0U, 116mg/kg) [%]	Fibrinolysis (%) : (24 hr after addition of Urokinase) (fibrin clot; Urokinase 50U, 116mg/kg) [%]	Fibrinolysis (%) : (24 hr after addition of Urokinase) (fibrin clot; Urokinase 100U, 116mg/kg) [%]	Fibrinolysis (%) : (24 hr after addition of Urokinase) (fibrin clot; Urokinase 0U, 300mg/kg) [%]	Fibrinolysis (%) : (24 hr after addition of Urokinase) (fibrin clot; Urokinase 50U, 300mg/kg) [%]	Fibrinolysis (%) : (24 hr after addition of Urokinase) (fibrin clot; Urokinase 100U, 300mg/kg) [%]	fibrinolytic activity (fibrin clot; urokinase addition level of 100 U)	diarrhea-inducing effect ([1]; summary of Table 2)	α2-PI activity (α2-PI)
+++ (2×) and ++ and +	+++ (3×) and + +	+ (2×) and ± (2×)	-					CN1C[C@H](O)[C@@H](O)[C@H](O)[C@H]1CO [Compound B, N-methylmoranoline, reference compound]	172 ± 56	213 ± 27	340 ± 49						
				+ and - and ± and +++	+++ and ± (2×) and -	± (2×) and - (2×)	± and - (3×)	CCCC(=O)OCC1C(OC(=O)CCC)C(OC(=O)CCC)C(OC(=O)CCC)CN1C (centres unmarked) [Compound A, 2,3,4,5-tetra-O-butyryl-N-methyl-moranoline]				143 ± 27	278 ± 31	342 ± 30	significantly accelerated the fibrinolytic activity	less remarkable in diarrhea-inducing effect than compound B	decreased α2-PI activity significantly
